Assay [1] relates to mouse model of hyperuricemia. Nature of the assay: Uric acid level in serum of hyperuricemia model mice. It is filed as in vivo, Kunming mice. The conditions noted are these: xanthine i.p. hyperuricemia mice, dose 0.0002 g/10 g, once daily 11 days, mean ± SD. As for the experimental part: (§1) The mouse model of hyperuricemia was established by intraperitoneal injection of xanthine to increase the content of uric acid precursor in the body and thus to increase the generation of uric acid. The mouse model of hyperuricemia was administered via gavage with the total flavonoid extract from Gynura formosana Kitam. The inhibition rates of uric acid and […] in serum of the mouse and the inhibition rate of the activity of xanthine oxidase in the liver of the mouse were recorded to study the effect of the total flavonoid extract on symptoms of gout caused by hyperuricemia.
(§2) The high, medium and low dose groups of the total flavonoid extract were administered via gavage with an aqueous solution of total flavonoid extract from Gynura formosana Kitam. at a dose of 24 mg/10 mL, 12 mg/10 mL, 6 mg/10 mL, respectively. The model group was administered an equal-volume of saline. All of the drugs were administered once daily for continuous 11 days.
(§3) After 1 hour at last administration, the mice received 10% xanthine dissolved in 0.8% CMC-Na via intraperitoneal injection. After 0.5 hours of modeling, the mice were sacrificed and blood was taken from eyeballs. Then the mice were dissected immediately and livers were taken and stored at a low temperature. […]
(§4) The index was calculated by referring to the instructions. […]

The test system of assay [2] is mouse model of hyperuricemia. As to the kind of experiment: Creatinine level in serum of hyperuricemia model mice. The conditions noted are these: dose 0.0002 g/10 g, once daily 11 days, mean ± SD. It is filed as in vivo, Kunming mice. As for the experimental part:
as §1, §2, §3, §4

For the compound `Oc1ncnc2[nH]ncc12` [allopurinol], in assay [1], the “Uric Acid” value is 22.71 ± 0.27 mg/L. This compound came in with a Creatinine in assay [2] of 23 ± 1 µM.

The record behind these values is patent publication US11298390B2, “Total flavonoids extract of Gynura formosana Kitam., preparation method therefor and use thereof for treating hyperuricemia” (ZHANGZHOU PIEN TZE HUANG PHARMACEUTICAL CO., LTD., priority 2017, dated 2022).
